Results as given in the supplement of paper PMC10307832.

Columns and labels:
Experiment in all cases: relative viability (nuclei count vs DMSO), 5 days (fraction); higher = more cells survive
[1] = compound: CN1CCN(CC1)C2=CC(=C(C=C2)NC3=NC(=C(S3)C(=O)C4=C(C=CC=C4Cl)Cl)N)OC [XMD14-99] + COc1cccc2cc(-c3nc([C@H]4CC[C@H](C(=O)O)CC4)n4ncnc(N)c34)[nH]c12 [OSI-027] (partner 0.5 µM)
In short: (§1)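 Relative viability was taken as the ratio of nuclei in treated wells to nuclei in vehicle wells. Lung cancer cell lines in 1536-well plates received compounds by pin tool one day after seeding, either one drug alone or a fixed anchor-drug dose plus five library-drug doses (not always all listed) in √10 steps. Nuclei were counted on 4× images after 5 days of treatment, and values are medians of duplicate plates.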

[2] = compound: CN1CCN(CC1)C2=CC(=C(C=C2)NC3=NC(=C(S3)C(=O)C4=C(C=CC=C4Cl)Cl)N)OC [XMD14-99] + C[C@@H](Oc1cc(-c2cnn(C3CCNCC3)c2)cnc1N)c1c(Cl)ccc(F)c1Cl [Crizotinib] (partner 1 µM)
In short: as §1

[3] = compound: CN1CCN(CC1)C2=CC(=C(C=C2)NC3=NC(=C(S3)C(=O)C4=C(C=CC=C4Cl)Cl)N)OC [XMD14-99] + Nc1ncn([C@H]2C[C@H](O)[C@@H](CO)O2)c(=O)n1 [Decitabine] (partner 2 µM)
In short: as §1

[4] = compound: N[C@@H]1CCCN(c2c(/C=C3\SC(=O)NC3=O)cccc2-c2ccccc2)C1 [AZD1208] + COc1cccc2cc(-c3nc([C@H]4CC[C@H](C(=O)O)CC4)n4ncnc(N)c34)[nH]c12 [OSI-027] (partner 0.5 µM)
In short: as §1

Cell Line: NCI-H1915
- relative viability ([1]; first compound 0.08 µM): 0.629
- relative viability ([1]; first compound 0.8 µM): 0.548
- relative viability ([1]; first compound 2.53 µM): 0.487
- relative viability ([1]; first compound 8 µM): 0.415
- relative viability ([2]; first compound 0.08 µM): 1.02
- relative viability ([2]; first compound 0.8 µM): 0.877
- relative viability ([2]; first compound 2.53 µM): 0.812
- relative viability ([2]; first compound 8 µM): 0.805
- relative viability ([3]; first compound 0.08 µM): 0.25
- relative viability ([3]; first compound 0.8 µM): 0.255
- relative viability ([3]; first compound 2.53 µM): 0.263
- relative viability ([3]; first compound 8 µM): 0.259
- relative viability ([4]; first compound 0.08 µM): 0.571
- relative viability ([4]; first compound 0.253 µM): 0.524
- relative viability ([4]; first compound 0.8 µM): 0.569
- relative viability ([4]; first compound 2.53 µM): 0.428
- relative viability ([4]; first compound 8 µM): 0.451

Cell Line: NCI-H2085
- relative viability ([1]; first compound 0.08 µM): 0.725
- relative viability ([1]; first compound 0.8 µM): 0.815
- relative viability ([1]; first compound 2.53 µM): 0.624
- relative viability ([1]; first compound 8 µM): 0.42
- relative viability ([2]; first compound 0.08 µM): 0.833
- relative viability ([2]; first compound 0.8 µM): 0.814
- relative viability ([2]; first compound 2.53 µM): 0.843
- relative viability ([2]; first compound 8 µM): 0.56
- relative viability ([3]; first compound 0.08 µM): 0.561
- relative viability ([3]; first compound 0.8 µM): 0.529
- relative viability ([3]; first compound 2.53 µM): 0.523
- relative viability ([3]; first compound 8 µM): 0.45
- relative viability ([4]; first compound 0.08 µM): 0.796
- relative viability ([4]; first compound 0.253 µM): 0.933
- relative viability ([4]; first compound 0.8 µM): 0.585
- relative viability ([4]; first compound 2.53 µM): 0.934
- relative viability ([4]; first compound 8 µM): 0.661

Cell Line: COR-L 105
- relative viability ([1]; first compound 0.08 µM): 0.701
- relative viability ([1]; first compound 0.8 µM): 0.646
- relative viability ([1]; first compound 2.53 µM): 0.647
- relative viability ([1]; first compound 8 µM): 0.409
- relative viability ([2]; first compound 0.08 µM): 0.709
- relative viability ([2]; first compound 0.8 µM): 0.88
- relative viability ([2]; first compound 2.53 µM): 0.721
- relative viability ([2]; first compound 8 µM): 0.444
- relative viability ([3]; first compound 0.08 µM): 0.718
- relative viability ([3]; first compound 0.8 µM): 0.651
- relative viability ([3]; first compound 2.53 µM): 0.606
- relative viability ([3]; first compound 8 µM): 0.604
- relative viability ([4]; first compound 0.08 µM): 0.613
- relative viability ([4]; first compound 0.253 µM): 0.745
- relative viability ([4]; first compound 0.8 µM): 0.542
- relative viability ([4]; first compound 8 µM): 0.736

Cell Line: SK-LU-1
- relative viability ([1]; first compound 0.08 µM): 0.34
- relative viability ([1]; first compound 0.8 µM): 0.391
- relative viability ([1]; first compound 2.53 µM): 0.301
- relative viability ([1]; first compound 8 µM): 0.213
- relative viability ([2]; first compound 0.08 µM): 0.788
- relative viability ([2]; first compound 0.8 µM): 0.923
- relative viability ([2]; first compound 2.53 µM): 0.796
- relative viability ([2]; first compound 8 µM): 0.58
- relative viability ([3]; first compound 0.08 µM): 0.606
- relative viability ([3]; first compound 0.8 µM): 0.707
- relative viability ([3]; first compound 2.53 µM): 0.666
- relative viability ([3]; first compound 8 µM): 0.412
- relative viability ([4]; first compound 0.08 µM): 0.283
- relative viability ([4]; first compound 0.253 µM): 0.337
- relative viability ([4]; first compound 0.8 µM): 0.285
- relative viability ([4]; first compound 2.53 µM): 0.316
- relative viability ([4]; first compound 8 µM): 0.248

Cell Line: LXF-289
- relative viability ([1]; first compound 0.08 µM): 0.839
- relative viability ([1]; first compound 0.8 µM): 0.84
- relative viability ([1]; first compound 2.53 µM): 0.819
- relative viability ([1]; first compound 8 µM): 0.616
- relative viability ([2]; first compound 0.08 µM): 0.814
- relative viability ([2]; first compound 0.8 µM): 0.802
- relative viability ([2]; first compound 2.53 µM): 0.814
- relative viability ([2]; first compound 8 µM): 0.712
- relative viability ([3]; first compound 0.08 µM): 0.378
- relative viability ([3]; first compound 0.8 µM): 0.371
- relative viability ([3]; first compound 2.53 µM): 0.37
- relative viability ([3]; first compound 8 µM): 0.36
- relative viability ([4]; first compound 0.08 µM): 0.821
- relative viability ([4]; first compound 0.253 µM): 0.814
- relative viability ([4]; first compound 0.8 µM): 0.602
- relative viability ([4]; first compound 2.53 µM): 0.647
- relative viability ([4]; first compound 8 µM): 0.648

Cell Line: PC-3 [JPC-3]
- relative viability ([1]; first compound 0.08 µM): 0.769
- relative viability ([1]; first compound 0.8 µM): 0.701
- relative viability ([1]; first compound 2.53 µM): 0.638
- relative viability ([1]; first compound 8 µM): 0.541
- relative viability ([2]; first compound 0.08 µM): 1.05
- relative viability ([2]; first compound 0.8 µM): 0.955
- relative viability ([2]; first compound 2.53 µM): 0.916
- relative viability ([2]; first compound 8 µM): 0.781
- relative viability ([3]; first compound 0.08 µM): 0.75
- relative viability ([3]; first compound 0.8 µM): 0.88
- relative viability ([3]; first compound 2.53 µM): 0.797
- relative viability ([3]; first compound 8 µM): 0.774
- relative viability ([4]; first compound 0.08 µM): 0.8
- relative viability ([4]; first compound 0.253 µM): 0.698
- relative viability ([4]; first compound 0.8 µM): 0.762
- relative viability ([4]; first compound 2.53 µM): 0.702
- relative viability ([4]; first compound 8 µM): 0.628

Cell Line: NCI-H661
- relative viability ([1]; first compound 0.08 µM): 0.777
- relative viability ([1]; first compound 0.8 µM): 0.673
- relative viability ([1]; first compound 2.53 µM): 0.498
- relative viability ([1]; first compound 8 µM): 0.416
- relative viability ([2]; first compound 0.08 µM): 0.897
- relative viability ([2]; first compound 2.53 µM): 0.894
- relative viability ([2]; first compound 8 µM): 0.838
- relative viability ([3]; first compound 0.08 µM): 0.562
- relative viability ([3]; first compound 0.8 µM): 0.55
- relative viability ([3]; first compound 2.53 µM): 0.502
- relative viability ([3]; first compound 8 µM): 0.44
- relative viability ([4]; first compound 0.08 µM): 0.613
- relative viability ([4]; first compound 0.253 µM): 0.714
- relative viability ([4]; first compound 0.8 µM): 0.648
- relative viability ([4]; first compound 2.53 µM): 0.657
- relative viability ([4]; first compound 8 µM): 0.663

Cell Line: NCI-H1666
- relative viability ([1]; first compound 0.08 µM): 0.881
- relative viability ([1]; first compound 0.8 µM): 0.731
- relative viability ([1]; first compound 2.53 µM): 0.799
- relative viability ([1]; first compound 8 µM): 0.651
- relative viability ([2]; first compound 0.08 µM): 0.926
- relative viability ([2]; first compound 0.8 µM): 0.899
- relative viability ([2]; first compound 2.53 µM): 0.779
- relative viability ([2]; first compound 8 µM): 0.575
- relative viability ([3]; first compound 0.08 µM): 0.81
- relative viability ([3]; first compound 0.8 µM): 0.628
- relative viability ([3]; first compound 2.53 µM): 0.686
- relative viability ([3]; first compound 8 µM): 0.567
- relative viability ([4]; first compound 0.08 µM): 0.779
- relative viability ([4]; first compound 0.253 µM): 0.829
- relative viability ([4]; first compound 0.8 µM): 0.682
- relative viability ([4]; first compound 2.53 µM): 0.826
- relative viability ([4]; first compound 8 µM): 0.775
